{
  "source": "patent US5529986A",
  "about": "“Conjugate, its preparation and use and a substrate prepared with the conjugate” (priority 1991, dated 1996)",
  "origin": "cited, not measured here",
  "conditions": "heparin used for standard graphs",
  "data": [
    {"substance": "heparin", "values": [
      {"measurement": "Known specific biological activity", "result": 180, "unit": "I.U./mg"}
    ]}
  ]
}
